Key:
[1] = test system: soft-shelled turtle (Trionyx sinensis) liver RNA; assay: Fluorescence intensity of dye in PBS with soft-shelled turtle liver RNA (excitation 633 nm); type: binding; details: for Relative fluorescence intensity after binding RNA / Relative fluorescence intensity before binding RNA: in PBS; for Relative fluorescence intensity after binding RNA: bound with turtle liver RNA; for Relative fluorescence intensity before binding RNA: no RNA; for Ratio of increase in fluorescence (after vs before binding): turtle liver RNA in PBS; for ability to bind to nucleic acids versus Dye-0: concluded from FIG. 11; for increase in fluorescence intensity after binding RNA, comparison of dyes: identical concentrations, FIG. 11
Procedure: (§1) An amount of Dye-1 was accurately weighed and sufficiently dissolved in 2.5 mL methanol/ethylene glycol (50:50 vol/vol) to prepare a dye solution at a concentration of 5 mM. This solution was filtered before use. Separate amounts of soft-shelled turtle (Trionyx sinensis) liver RNA were weighed and dissolved in PBS to obtain PBS buffers containing 30 μg/mL, 10 μg/mL, 3 μg/mL, 1 μg/mL of RNA. 2-μL aliquots of the prepared 5 mM dye solution were accurately measured and respectively combined in 1 mL PBS with 1 μL of the PBS buffers containing different concentrations of RNA. After reacting for a period of time, the complexes were detected for their emission spectra at the selected excitation wavelength of 633 nm. The detection temperature was at room temperature. The instrument used was fluorescence spectrophotometer Model FL-4500.
FIG. 4 is a comparison of the relative fluorescence strength of Dye-1 in PBS before and after it is bound with RNA. As can likewise be seen in the figure, when Dye-1 formed complexes with RNA, there occurred a rapid increase in fluorescence intensity accompanied by a certain degree of red shift of fluorescence, with the maximum […] peak at about 655 nm in the near-infrared region, which can avoid the interference from the background fluorescence of the organisms per se and therefore improve the accuracy of detection.
(§2) The detection procedures followed were those described in Example 10 and Example 11. The fluorescence spectra for the complexes of Dye-2 with different concentrations of DNA or RNA are shown in FIG. 5 and FIG. 6, respectively. The comparisons of fluorescence for Dye-2 before and after it is bound with DNA or with RNA in PBS are shown in FIG. 7 and FIG. 8, respectively.
(§3) The detection procedures followed were those described in Example 10 and Example 11. The comparisons of fluorescence for Dye-3 before and after it bound with DNA or with RNA in PBS are shown in FIG. 9 and FIG. 10, respectively.
Table 2 compares the ratios of increase in fluorescence for Dye-1, Dye-2 and Dye-3 after vs before they bound with soft-shelled turtle (Trionyx sinensis) liver RNA in PBS.
The detection procedure followed was that described in Example 10. The fluorescence spectra for Dye-1, Dye-2 and Dye-0 after they bound in identical concentrations with soft-shelled turtle (Trionyx sinensis) liver RNA are shown in FIG. 11.

[2] = Fluorescence quantum yield in ethanol; type: physicochemical; details: room temperature, triplicate, Rhodamine B as standard
Procedure: Each of the dyes were detected in triplicate at room temperature. Fluorescence quantum yields were calculated and averaged. With Rhodamine B as the standard (φF=0.97, ethanol), the fluorescence quantum yield for the known compound M in the ethanol solution was calculated to be φF=1.099×10^−2; for Dye-1, φF=1.590×10^−2; for Dye-2, φF=1.248×10^−2; and for Dye-3, φF=1.181×10^−2. The instrument used was UV-Vis spectrophotometer Model Lambda 35, and fluorescence spectrophotometer Model FL-4500.

salmon sperm DNA = assay: Fluorescence intensity of dye in PBS with salmon sperm DNA (excitation 633 nm); type: binding; details: for fluorescence of the dye per se in PBS without nucleic acid: PBS without DNA/RNA; for Relative fluorescence intensity after binding DNA / Relative fluorescence intensity before binding DNA: in PBS; for Relative fluorescence intensity after binding DNA: bound with salmon sperm DNA; for Relative fluorescence intensity before binding DNA: no DNA; for Ratio of increase in fluorescence (after vs before binding): salmon sperm DNA in PBS
Procedure: as §1, with “salmon sperm DNA” for “soft-shelled turtle (Trionyx sinensis) liver RNA”, “containing” for “containing 30 μg/mL, 10 μg/mL,”, “mg/mL,” for “μg/mL,”, “mg/mL, 0.3 mg/mL, 0.1 mg/mL” for “μg/mL”, “DNA.” for “RNA.”
FIG. 2 is a comparison of the relative fluorescence strength of Dye-1 in PBS before and after it is bound with DNA.
as §2, §3
Table 1 compares the ratios of increase in fluorescence for Dye-1, Dye-2 and Dye-3 after vs before they bound with salmon sperm DNA in PBS.

[3] = ethanol; cited from earlier work

Structure (SMILES) | Relative fluorescence intensity after binding RNA [1] | Relative fluorescence intensity before binding RNA [1] | Ratio of increase in fluorescence (after vs before binding) [1] | fluorescence quantum yield φF [2] | fluorescence of the dye per se in PBS without nucleic acid (salmon sperm DNA) | Relative fluorescence intensity after binding DNA (salmon sperm DNA) | Relative fluorescence intensity before binding DNA (salmon sperm DNA) | Ratio of increase in fluorescence (after vs before binding) (salmon sperm DNA) | change of fluorescence emission strength of dye/RNA complexes with RNA concentration ([1]; RNA buffers 1-30 μg/mL, FIG. 3) | ability to bind to nucleic acids versus Dye-0 [1] | increase in fluorescence intensity after binding RNA, comparison of dyes [1] | change of fluorescence emission strength of dye/DNA complexes with DNA concentration (salmon sperm DNA; DNA buffers 0.1-3 mg/mL, FIG. 1) | fluorescence quantum yield φF of the standard [3]
OCCN1C=C/C(=C\C=C\c2sc3ccccc3[n+]2CCOc2ccccc2)c2ccccc21.[Br-] [Dye-3] | 33.57 | 1.64 | 20 | 1.181×10^−2 | weak fluorescence | 94.37 | 1.64 | 55 |  |  |  |  | 
CCOC(=O)CCCCC[n+]1c(/C=C/C=C2\C=CN(Cc3ccccc3)c3ccccc32)sc2ccccc21.[Br-] [Dye-1] | 83.24 | 1.82 | 46 | 1.590×10^−2 | scarcely generated any fluorescence | 68.63 | 1.82 | 38 | increased rapidly with the increase in RNA concentration | superior to Dye-0 | largest magnitude of increase in fluorescence intensity | increased rapidly with the increase in DNA concentration | 
CCOC(=O)CCCN1C=C/C(=C\C=C\c2sc3ccccc3[n+]2CCO)c2ccccc21.[Br-] [Dye-2] | 37.28 | 0.97 | 38 | 1.248×10^−2 | scarcely generated any fluorescence | 102.93 | 0.97 | 106 |  | superior to Dye-0 | marked increase in fluorescence intensity |  | 
CCN(CC)c1ccc2c(-c3ccccc3C(=O)O)c3ccc(=[N+](CC)CC)cc-3oc2c1.[Cl-] [Rhodamine B] |  |  |  |  |  |  |  |  |  |  |  |  | 0.97
CCN1C=C/C(=C\C=C\c2sc3ccccc3[n+]2CC)c2ccccc21.[I-] [Dye-0, reference compound] |  |  |  | 1.099×10^−2 |  |  |  |  |  |  |  |  | 

Reference: patent US8067602B2, “Asymmetric cyanine fluorescent dyes, compositions and their use in staining biological samples” (Shenzhen Mindray Bio-Medical Electronics Co., Ltd., priority 2008, dated 2011)
